Results reported in BindingDB's records for doi:10.1016/j.bmcl.2014.02.013 (Bristol-Myers Squibb, 2014).

Experiment: Antagonist activity at CCR2 in human monocytes assessed as reduction of chemotaxis in presence of […] BSA

Row | Compound | IC50
1 | CCS(=O)(=O)C[C@@H]1C[C@H](N(C)C(C)C)CC[C@@H]1N1CC[C@H](NC(=O)c2cccc(C(F)(F)F)c2)C1=O | 0.6 nM
2 | CC(C)N(C)[C@@H]1CC[C@H](N2CC[C@H](NC(=O)c3cccc(C(F)(F)F)c3)C2=O)[C@H](CS(=O)(=O)C(C)C)C1 | 0.2 nM
3 | CC(C)N(C)[C@@H]1CC[C@H](N2CC[C@H](NC(=O)c3cccc(C(F)(F)F)c3)C2=O)[C@H](CS(C)(=O)=O)C1 | 2.6 nM
4 | CC(C)N(C)[C@@H]1CC[C@H](N2CC[C@H](NC(=O)c3cccc(C(F)(F)F)c3)C2=O)[C@H](CS(=O)(=O)C(C)(C)C)C1 | 0.2 nM
